Test results from patent publication US12458688B2, “Epitopes” (Scancell Limited, priority 2018, dated 2025).
Where two headings read alike, the source gives them in different places.

Tests used:
HLA-HHDII/DP4 mice = experiment: Ex vivo IFNγ ELISpot after peptide immunisation, HHDII/DP4 mice; format: in vivo, mouse; settings: for IFNγ ELISpot response: 3 immunisations with CpG/MPLA, day 21
Method: (§1) C57BL/6 mice (Charles River, UK), HLA-DR4 mice (Model #4149, Taconic, USA), HLA-A2/DR1 (HHDII/DR1, Pasteur Institute), HLA-A2.1+/+HLA-DP4+/+hCD4+/+ (HLA-HHDII/DP4) transgenic mice (EM: 02221, European Mouse Mutant Archive) described in patent WO2013/017545 A1 (EMMA repository, France) were used, aged between 8 and 12 weeks. Peptides were dissolved in PBS to 1 mg/ml and then emulsified (a series of dilutions) with CpG ODN 1826 and MPLA 6 μg/mouse of each (Invivogen, UK). Peptides (25 μg/mouse) were injected subcutaneously at the base of the tail. Mice were immunised at days 1, 7 and 14 for peptide immunisation. Spleens were removed for analysis at day 21 unless stated otherwise.
(§2) ELISpot assays were performed using murine IFNγ, IL-17 and IL-10 capture and detection reagents according to the manufacturer's instructions (Mabtech, Sweden). In brief, anti-IFNγ, IL-17 and IL-10 specific antibodies were coated onto wells of 96-well Immobilin-P plate. Synthetic peptides (at various concentrations) and 5×10^5 per well splenocytes were added to wells of the plate in quadruplicate Tumour target cells were added where relevant at 5×10^4/well in triplicate and plates incubated for 40 hrs at 37° C. After incubation, captured IFNγ, IL-10 and IL-17 were detected by biotinylated anti-IFNγ, IL-10 and IL-17 antibodies and developed with a streptavidin alkaline phosphatase and chromogenic substrate. Lipopolysaccharide (LPS; 5 μg/ml) was used as a positive control. For MHC blocking studies, anti-CD4 blocking antibody (GK1.5) or anti-CD4 blocking antibody (RPA-T4) for HHDII/DP4 mice which express human CD4 and anti-CD8 blocking antibody (2.43) from Bioxcell were used at 20 μg/ml. Spots were analysed and counted using an automated plate reader (Cellular Technologies Ltd).
Screening was performed to identify potential homocitrullinated ALDOA epitopes in transgenic HHDII/DP4 and HHDII/DR1 mice. Mice were immunised with pools of human homocitrullinated peptides. […] Each pool was administered as three immunisations containing 20 μg of each peptide and CpG/MPLA as an adjuvant. After 21 days the mice were culled and the immune responses to each peptide within the immunising pool were assessed by ex vivo ELISpot in HHDII/DP4 (FIG. 4b) and HHDII/DR1 mice (FIG. 4d). […] Our predictions therefore identified 3/5 peptides which could induce a T cell response. […] Of the responding peptides ALDOA 74-93 Hcit and 140-157 Hcit peptides are homologous in human and mice therefore these two peptides were selected for further investigation. Minimal IL-10 (FIG. 6b) or IL-17 (FIG. 6c) responses were seen to Aldolase peptides in HHDII/DP4 mice.
Using this combination of predictions, 5 CyK8 peptides containing homocitrulline were synthesised (Table 4). Screening was performed to identify potential homocitrullinated Cyk8 epitopes in transgenic HHDII/DP4. Mice were immunised with pools of human homocitrullinated peptides. […] Each pool was administered as three immunisations containing 20 μg of each peptide and CpG/MPLA as an adjuvant. After 21 days the mice were culled and the immune responses to each peptide within the immunising pool were assessed by ex vivo ELISpot in HHDII/DP4 (FIG. 10a). […] The responses to CyK8 101-120 Hcit, 112-131 Hcit, 182-201 Hcit, 371-388 Hcit and 381-399 Hcit immunisation were characterised for cross reactivity to the wt peptide sequence. […] Thus a key characteristic of immunogenic peptides is they express homocitrulline. All of these peptides (100%) were immunogenic. Thus a high predicted HLA-DP4 binding affinity (<30), the presence of homocitrulline residues in the core region, the peptide being amphipathic in nature with a predominantely spiral conformational structure upon 3D modelling, and the existence of homology between the mouse and human sequences defines immunogenicity. When this model was applied retrospectively to include the vimentin and ALDOA peptides 8/9 (88%) were correctly predicted. […]

HLA-HHDII/DR1 mice = experiment: Ex vivo IFNγ ELISpot after peptide immunisation, HHDII/DR1 mice; format: in vivo, mouse; settings: for IFNγ ELISpot response: 3 immunisations with CpG/MPLA, day 21
Method: as §1, §2
Screening was performed to identify potential homocitrullinated vimentin epitopes in mice. Mice were immunised with pools of homocitrullinated peptides. […] Each pool was administered as three immunisations containing 20 μg of each peptide and CpG/MPLA as an adjuvant on day 1, 8 and 15. On day 21 the mice were culled and the immune responses to each peptide within the immunising pool were assessed by ex vivo ELISpot. Given that different mouse strains have different MHC repertoires a number of strains were used for screening. Peptide responses were assessed in transgenic strains expressing human DR4 or HHDII/DR1 in a C57BL/6 background (see methods). […]
The five selected homocitrullinated Cyk8 peptides were also screened in HHDII/DR1 transgenic mice. […] Response to Cyk8 112Hcit peptide in the HHDII/DR1 mice was lost in the presence of CD8 blocking antibody but less effect of the CD4 blocking antibody was seen (FIG. 12b). […] Responses to homocitrullinated Cyk8 peptides show both CD4 and CD8 mediated responses.

[1] = splenocytes after 7 days culture

Substance	IFNγ ELISpot response (HLA-HHDII/DP4 mice)	IFNγ response in presence of CD4 blocking antibody (HLA-HHDII/DP4 mice; [1])	IFNγ response in presence of CD8 blocking antibody (HLA-HHDII/DP4 mice; [1])	IFNγ ELISpot response (HLA-HHDII/DR1 mice)	further results
DVAASEFFRSG-Hcit-YDLDF-Hcit-SP [Alpha enolase 245-264 Hcit]	stimulation of IFNγ responses	lost	–	–	–
EDFSETLTRA-Hcit-FEELNMDLFR [BiP 316-336 Hcit]	stimulation of IFNγ responses	loss of response	–	–	–
EELNMDLFRSTM-Hcit-PVQ-Hcit-VL [BiP 328-346 Hcit]	stimulation of IFNγ responses	loss of response	–	–	cross reactivity of Hcit response to wt peptide (HLA-HHDII/DP4 mice): significantly higher
GGSLP-Hcit-VEA-Hcit-FINYV-Hcit-NCFR [NPM 258-277 Hcit]	stimulation of IFNγ responses	blocking of the response	not with the CD8 blocking antibody	–	cross reactivity of Hcit response to wt peptide (HLA-HHDII/DP4 mice): significantly higher
Hcit-MALDIEIATYR-Hcit-LLEGEE [Vimentin 390-408 Hcit]	stimulation of IFNγ responses	loss of response	–	–	–
Hcit-MLET-Hcit-WSL [Cyk8 117-125Hcit]	generation of responses	–	–	generation of responses	IFNγ response in presence of CD4 blocking antibody (HLA-HHDII/DP4 mice): not in the presence of CD4 blocking antibody; IFNγ response in presence of CD8 blocking antibody (HLA-HHDII/DP4 mice): blocked; IFNγ response in presence of CD8 blocking antibody (HLA-HHDII/DR1 mice): lost
LEQQNKMLETKWSLLQQQKT [Cyk8 112 wt, reference compound]	–	–	–	no specific response	–
PLRPQNYLFGCEL-Hcit-AD-Hcit- [NPM 11-27 Hcit]	stimulation of IFNγ responses	blocking of the response	not with the CD8 blocking antibody	–	–
RSERLA-Hcit-YNQLLRIEEELGS [Alpha enolase 400-419 Hcit]	stimulation of IFNγ responses	lost	–	–	–
VLAAVY-Hcit-AL [Aldolase 209-217]	stimulation of IFNγ responses	–	lost	strong responses	cross reactivity of Hcit response to wt peptide (HLA-HHDII/DR1 mice): lower reactivity
YVTE-Hcit-VLAAVY-Hcit-ALSD [Aldolase 204-219 Hcit]	stimulation of IFNγ responses	partial loss of response	partial loss of response	strong responses	cross reactivity of Hcit response to wt peptide (HLA-HHDII/DP4 mice): significantly higher; cross reactivity of Hcit response to wt peptide (HLA-HHDII/DR1 mice): lower reactivity
